Literature values, collected in paper PMC4791286, “Puquitinib mesylate, an inhibitor of phosphatidylinositol 3-kinase p110δ, for treating relapsed or refractory non-Hodgkin's lymphoma” (Oncotarget, 2015).

What was measured:
[1] = test system: advanced solid tumors and lymphoma; set-up: method as in PMID 22357447; details: cited from earlier work
advanced solid tumors = details: human, in vivo; cited from earlier work

| Structure (SMILES) | AST elevations, Grade 2 [1] [n] | AST elevations, Grade 3 [1] [n] | Grade 3 AST abnormalities (advanced solid tumors) |
| --- | --- | --- | --- |
| COc1ccc(-c2ccc3ncc4c(c3c2)n(-c2ccc(N3CCNCC3)c(C(F)(F)F)c2)c(=O)n4C)cn1 [BGT226] | 9 | 3 | – |
| C=CCN(/C=C1/C(=O)O[C@H](COC)[C@@]2(C)C1=C(O)C(=O)C1=C2[C@H](OC(C)=O)C[C@]2(C)C(=O)CC[C@@H]12)CC=C [PX866] | – | – | 2 of 84 patients |
